Measured values taken from US20260250318A1, “COMPOSITIONS AND METHODS FOR CROSSING THE BLOOD BRAIN BARRIER” (VOYAGER THERAPEUTICS, INC., priority 2022, published 2026).

Key:
brain [1] = test: Matured TTM-001 and TTM-002 variants, NGS enrichment in mouse brain; type: in vivo, mice; details: relative to AAV9 control
[2] = system: brains, heart, liver, muscle, and DRG of the NHPs; test: Maturation of TTM-001 and TTM-002 capsids, NGS enrichment in NHP tissues; type: in vivo; details: relative to AAV9 control
Summary of the method: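 Variants carry mutations within and flanking the loop IV peptide insert: positions 450–466 were triplet-randomized, while positions 449–466 received low-frequency point mutations. The combined pool went into two NHPs, and each peptide was scored by NGS enrichment ratio against AAV9.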

brain [3] = test: NGS fold enrichment of synthetic library (passage 3) in BALB/c mice, first cross-species screen; type: in vivo; details: synthetic library passage 3, intravenous, relative to wild-type AAV9
Summary of the method: (§1)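 Fold enrichment versus wild-type AAV9 was derived by NGS of RT-PCR-amplified RNA from nervous tissue, collected e.g. 28 days after IV dosing […]. The library (passage 3) was given to two NHPs aged 2-4 years and to 6-8-week BALB/c and C57Bl/6 mice (n=3 each).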

brain [4] = test: NGS fold enrichment of synthetic library (passage 3) in C57Bl/6 mice, first cross-species screen; type: in vivo; details: synthetic library passage 3, intravenous, relative to wild-type AAV9
Summary of the method: as §1

[5] = system: brain, spinal cord, and DRG of the NHPs; test: NGS fold enrichment of synthetic library (passage 3) in NHPs, first cross-species screen; type: in vivo, cynomolgus macaques (Macaca fascicularis); details: synthetic library passage 3, intravenous, relative to wild-type AAV9
Summary of the method: as §1

[6] = NGS fold-enrichment of matured AAV capsid variants, NHP brain, RNA
[7] = NGS fold-enrichment, mouse brain
[8] = NGS fold-enrichment of RNA, NHP brain
[9] = NGS fold-enrichment, NHP liver DNA
[10] = NGS fold-enrichment, NHP liver RNA
[11] = NGS fold-enrichment, NHP muscle

KTINGSGSPHSKAQAPAT
Fold Enrichment relative to AAV9, Brain (Mouse) (brain [1]; NGS fold-enrichment, brain of mice): 127.420 fold | Fold Enrichment relative to AAV9, DRG (NHP) ([2]; NGS fold-enrichment, DRG of NHPs): 0.000 fold | Fold Enrichment relative to AAV9, Brain (NHP) ([2]; NGS fold-enrichment, RNA, brain of NHPs): 61.934 fold | Fold Enrichment relative to AAV9, Heart (NHP) ([2]; NGS fold-enrichment, heart of NHPs): 0.169 fold | Fold Enrichment relative to AAV9, Liver DNA (NHP) ([2]; NGS fold-enrichment, liver DNA of NHPs): 0.197 fold | Fold Enrichment relative to AAV9, Liver RNA (NHP) ([2]; NGS fold-enrichment, liver RNA of NHPs): 0.696 fold | Fold Enrichment relative to AAV9, Muscle (NHP) ([2]; NGS fold-enrichment, muscle of NHPs): 0.015 fold

KTINGSGSPHSKAQIGHT
Fold Enrichment relative to AAV9, Brain (Mouse) (brain [1]; mouse brain): 99.262 fold | Fold Enrichment relative to AAV9, Brain (NHP) [2, 6]: 57.769 fold | Fold Enrichment relative to AAV9, DRG (NHP) ([2]; NHP DRG): 0.024 fold | Fold Enrichment relative to AAV9, Heart (NHP) ([2]; NHP heart): 0.000 fold | Fold Enrichment relative to AAV9, Liver DNA (NHP) ([2]; NHP liver, DNA): 0.154 fold | Fold Enrichment relative to AAV9, Liver RNA (NHP) ([2]; NHP liver, RNA): 0.281 fold | Fold Enrichment relative to AAV9, Muscle (NHP) ([2]; NHP muscle): 0.000 fold

KTITGHDSPHKSGQNQWT
Fold Enrichment relative to AAV9, Brain (Mouse) (brain [1]; [7]): 7.744 fold | Fold Enrichment relative to AAV9, Brain (NHP) [2, 8]: 81.658 fold | Fold Enrichment relative to AAV9, DRG (NHP) ([2]; NGS fold-enrichment, NHP DRG): 0.000 fold | Fold Enrichment relative to AAV9, Heart (NHP) ([2]; NGS fold-enrichment, NHP heart): 0.090 fold | Fold Enrichment relative to AAV9, Liver DNA (NHP) [2, 9]: 0.000 fold | Fold Enrichment relative to AAV9, Liver RNA (NHP) [2, 10]: 0.936 fold | Fold Enrichment relative to AAV9, Muscle (NHP) [2, 11]: 0.000 fold

KTDVNSGSPHSKAQNQQT
Fold Enrichment relative to AAV9, Brain (Mouse) (brain [1]; mouse brain): 66.127 fold | Fold Enrichment relative to AAV9, Brain (NHP) [2, 6]: 57.593 fold | Fold Enrichment relative to AAV9, DRG (NHP) ([2]; NHP DRG): 0.000 fold | Fold Enrichment relative to AAV9, Heart (NHP) ([2]; NHP heart): 0.000 fold | Fold Enrichment relative to AAV9, Liver DNA (NHP) ([2]; NHP liver, DNA): 0.331 fold | Fold Enrichment relative to AAV9, Liver RNA (NHP) ([2]; NHP liver, RNA): 0.000 fold | Fold Enrichment relative to AAV9, Muscle (NHP) ([2]; NHP muscle): 0.000 fold

KTVNGHDSPHKSGQTRQT
Fold Enrichment relative to AAV9, Brain (Mouse) (brain [1]; [7]): 7.174 fold | Fold Enrichment relative to AAV9, Brain (NHP) [2, 8]: 133.276 fold | Fold Enrichment relative to AAV9, DRG (NHP) ([2]; NGS fold-enrichment, NHP DRG): 0.251 fold | Fold Enrichment relative to AAV9, Heart (NHP) ([2]; NGS fold-enrichment, NHP heart): 0.080 fold | Fold Enrichment relative to AAV9, Liver DNA (NHP) [2, 9]: 0.129 fold | Fold Enrichment relative to AAV9, Liver RNA (NHP) [2, 10]: 0.034 fold | Fold Enrichment relative to AAV9, Muscle (NHP) [2, 11]: 0.093 fold

KTIPAIGSPHSKAQNQQT
Fold Enrichment relative to AAV9, Brain (Mouse) (brain [1]; mouse brain): 51.949 fold | Fold Enrichment relative to AAV9, Brain (NHP) [2, 6]: 52.346 fold | Fold Enrichment relative to AAV9, DRG (NHP) ([2]; NHP DRG): 0.000 fold | Fold Enrichment relative to AAV9, Heart (NHP) ([2]; NHP heart): 0.009 fold | Fold Enrichment relative to AAV9, Liver DNA (NHP) ([2]; NHP liver, DNA): 0.134 fold | Fold Enrichment relative to AAV9, Liver RNA (NHP) ([2]; NHP liver, RNA): 0.034 fold | Fold Enrichment relative to AAV9, Muscle (NHP) ([2]; NHP muscle): 0.000 fold

GSGQNQQAPHKKET
Fold enrichment over AAV9 in the brain of Mice (BALB/c) (brain [3]; RNA from brain of BALB/c mice, NGS): 0.689 fold | Fold enrichment over AAV9 in the brain of Mice (C57Bl/6) (brain [4]; RNA from brain of C57Bl/6 mice, NGS): 0.994 fold | Fold enrichment over AAV9 in the brain of NHPs ([5]; RNA from brain of NHPs, NGS): 1.180 fold | Fold enrichment over AAV9 in the spinal cord of NHPs ([5]; RNA from spinal cord of NHPs, NGS): 0.598 fold

GSGQNQQTTASSHT
Fold enrichment over AAV9 in the brain of Mice (BALB/c) (brain [3]; RNA NGS, brain of BALB/c mice): 0.678 fold | Fold enrichment over AAV9 in the brain of Mice (C57Bl/6) (brain [4]; RNA NGS, brain of C57Bl/6 mice): 0.745 fold | Fold enrichment over AAV9 in the brain of NHPs ([5]; RNA NGS, brain of NHPs): 1.618 fold | Fold enrichment over AAV9 in the spinal cord of NHPs ([5]; RNA NGS, spinal cord of NHPs): 7.404 fold

GSGQNQQTLSKPWT
Fold enrichment over AAV9 in the brain of Mice (BALB/c) (brain [3]; RNA NGS, brain of BALB/c mice): 0.733 fold | Fold enrichment over AAV9 in the brain of Mice (C57Bl/6) (brain [4]; RNA NGS, brain of C57Bl/6 mice): 0.845 fold | Fold enrichment over AAV9 in the brain of NHPs ([5]; RNA NGS, brain of NHPs): 1.743 fold | Fold enrichment over AAV9 in the spinal cord of NHPs ([5]; RNA NGS, spinal cord of NHPs): 0.253 fold

GSTGSHSAGQNQHT
Fold enrichment over AAV9 in the brain of Mice (BALB/c) (brain [3]; RNA NGS, brain of BALB/c mice): 0.850 fold | Fold enrichment over AAV9 in the brain of Mice (C57Bl/6) (brain [4]; RNA NGS, brain of C57Bl/6 mice): 1.190 fold | Fold enrichment over AAV9 in the brain of NHPs ([5]; RNA NGS, brain of NHPs): 3.717 fold | Fold enrichment over AAV9 in the spinal cord of NHPs ([5]; RNA NGS, spinal cord of NHPs): 0.285 fold

GSGPQSHTGQNQQT
Fold enrichment over AAV9 in the brain of Mice (BALB/c) (brain [3]; RNA NGS, brain of BALB/c mice): 0.447 fold | Fold enrichment over AAV9 in the brain of Mice (C57Bl/6) (brain [4]; RNA NGS, brain of C57Bl/6 mice): 0.958 fold | Fold enrichment over AAV9 in the brain of NHPs ([5]; RNA NGS, brain of NHPs): 1.757 fold | Fold enrichment over AAV9 in the spinal cord of NHPs ([5]; RNA NGS, spinal cord of NHPs): 9.490 fold

GSRDGHTVGQNQQT
Fold enrichment over AAV9 in the brain of Mice (BALB/c) (brain [3]; RNA NGS, brain of BALB/c mice): 0.661 fold | Fold enrichment over AAV9 in the brain of Mice (C57Bl/6) (brain [4]; RNA NGS, brain of C57Bl/6 mice): 0.495 fold | Fold enrichment over AAV9 in the brain of NHPs ([5]; RNA NGS, brain of NHPs): 1.928 fold | Fold enrichment over AAV9 in the spinal cord of NHPs ([5]; RNA NGS, spinal cord of NHPs): 7.089 fold
